Results from patent US6166084A, “Compositions for the treatment of chronic wounds” (Johnson & Johnson Medical, Ltd., priority 1996, dated 2000).

What was measured:
[1] = tested on: matrix metalloproteinases (MMP) from human wound fluid; assay: MMP activity by gelatin SDS-PAGE zymography; format: biochemical; conditions: 18 hours at 37° C., pH 7.8
Method: The effect of NAC concentration on the activity of matrix metalloproteinases (MMP) from human wound fluid was assessed as follows.
The MMP activity was determined by gelatin SDS polyacrylamide gel electrophoresis (zymography) similar to that described by Heussen C. and Dowdle E. B. in Anal. Biochem. 102:196-202 (1980).
The experimental method was as follows:
1. Gel preparation. The following components were mixed thoroughly:
1. 5 ml 30% acrylamide/bis acrylamide (30 g acrylamide (Sigma A8887) plus 0.8 g N-N'-methylene bis-acrylamide (Sigma M7279) in 100 ml deionised water).
2. 6.05 ml deionised water.
3. 3.75 ml 1.5M Tris-HCl buffer.
4. 150 μl 10% sodium dodecyl sulphate (SDS. Fisons S/5200/53).
5. 1 ml warm (60° C.) gelatin (Sigma G9382) solution (7.5 mgml^-1).
6. Immediately prior to casting the gel 50 μl 10% ammonium persulphate (APS, Fisons A/6160/53) and 12.5 μl tetramethylethylenediamine (TEMED, Sigma T9281).
4.5 ml of the above mixture was added to the electrophoresis apparatus (Dual Mini Slab Kit, Atto Corporation), and covered with propanol saturated water. The gel was left gel to polymerise for at least 45 minutes. Then propanol solution was decanted and added to 1 ml of stacking gel solution (3.15 ml deionised water, 0.75 ml 30% acrylamide/bis-acrylamide, […] 1.5M Tris-HCl, 50 μl 10% SDS, 50 μl ammonium persulphate and 10 μl TEMED). Finally, a sample comb (8 lane comb) was inserted and the gel left to polymerise for at least 45 minutes.
2. Sample preparation: A matrix metalloprotease (MMP) sample (10% solution of human acute wound fluid diluted in MMP proteolysis buffer (see below)) was diluted 1:1 with sample buffer (6.3 ml 0.5M Tris-HCl pH 6.8, 2.5 ml glycerol, 0.5 g SDS, 16.2 ml deionised water and bromophenol blue to colour).
3. Sample loading and electrophoresis: 20 μl of the MMP samples were loaded into 8 lanes of the gel. The MMP's were separated for 1 hour at 20 mA/100V per gel until the dye front was almost at the bottom of the gel. The gel apparatus was then dismantled and the gel removed.
4. Proteolysis: Washed gels for 30 minutes with 100 ml 2.5% Triton X-100. The procedure was repeated three times. The gels were cut into slices consisting of two lanes per slice. The gel slices were incubated in 20 ml proteolysis buffer (50 mM Tris-HCl pH 7.8, 50 mM CaCl2, 0.5M NaCl) containing the following treatments (each treatment was adjusted to pH 7.8) for 18 hours at 37° C.: (1) proteolysis buffer alone; (2) N-acetyl cysteine (44 mM); (3) N-acetyl cysteine (4.4 mM); (4) N-acetyl cysteine (0.44 mM).
5. […]
The area of the individual zones of clearance on the gels, which are due to proteinase activity, were accurately measured by the Optilab (RTM) system. […]

[2] = tested on: TNF-α induced CD 54, Intercellular Adhesion Molecule (ICAM-1) expression by Human Umbilical Vein Endothelial Cells (HUVEC); assay: TNF-α induced ICAM-1 expression by HUVEC (ELISA); format: cell-based; conditions: TNF-α 0.5 ng/ml
Method: The effects of NAC on the expression of the TNF-α induced CD 54, Intercellular Adhesion Molecule (ICAM-1) by Human Umbilical Vein Endothelial Cells (HUVEC) was assessed as follows.
DL-Buthionine sulphoximine (BSO) was used to pretreat the cells. BSO is an inhibitor of glutathione synthesis and therefore reduces the glutathione content of the HUVEC rendering them more susceptible to oxidative stress and mimicking the conditions implicated in chronic wounds. NAC was used as a treatment to inhibit the expression of ICAM-1 by interfering with the TNF-α mediated intracellular signalling.
HUVEC were seeded to wells of 96 well plates (5000 cells per well in 100 μl Endothelial Growth Medium (EGM)). The plates were allowed to grow until the cells reached 90% confluence. The medium was decanted from each plate and the following treatments (all volumes were 200 μl, performed in quadruplicate wells) where then applied to the HUVEC. […]
ICAM-1 expression, stimulated by inflammatory mediators such as tumour necrosis factor, can be detected on the surface of cells (endothelial cells, monocytes, T&B cells, keratinocytes, chondrocytes and epithelial cells) using ELISA techniques, as follows: […]
8. Stop the reaction when colour develops by the addition of 1M H2 SO4 (100 μl per well) and read the absorbance at 450 nm using a Dynatech (RTM) plate reader.

With `CC(=O)N[C@@H](CS)C(=O)O` [NAC, N-acetyl-3-mercaptoalanine] as the compound, how does the “inhibition of MMP activity” value ([1]; 0.44 mM NAC) read?
The value was “approximately 10%”.

And the “inhibition of MMP activity” value ([1]; 4.4 mM NAC solution)?
The value was “Approximately 70%”.

What about the “inhibition of MMP activity” value ([1]; 44 mM NAC solution) of the same compound?
Its value is “substantially complete”.

What about the “inhibition of MMP activity (concentration dependence)” value ([1]; NAC 0.44, 4.4, 44 mM, FIG. 2) of the same compound?
Its value is “clear concentration-dependent inhibition”.

What about the “inhibition of ICAM-1 expression (concentration dependence)” value ([2]; BSO (50 μM) pretreated HUVEC, NAC 1.1, 3.3, 10 mM, FIG. 1) of the same compound?
Its value is “concentration-dependent inhibition”.

And the “inhibition of ICAM-1 expression, all NAC concentrations” value ([2]; NAC 10, 3.3 and 1.1 mM, P<0.05, Students T-test, BSO pretreated HUVEC)?
Its value is “significant inhibition”.
